Test results taken from patent US10301355B2, “Method of using pharmaceutical compositions comprising selective peptide-based agonists of melanocortin 1 receptor” (University of Cincinnati, priority 2012, dated 2019).
Entries after “also recorded” stand apart in the source; their conditions may differ.

Key:
Type in all cases: cell-based
MC1R [1] = biological target: T1, MC1R (Homo sapiens, UniProt Q01726); test: Stimulation of cAMP formation in cultured human melanocytes; parameters: endogenous in cells; host or cells: cultured human melanocytes; settings: for cAMP compared to 10 nM αMSH: cultured human melanocytes
Experimental: Peptides were tested on cultured human melanocytes for their capacity to activate MC1R, as measured by stimulating cAMP formation. After 45 minutes of treatment with different concentrations of peptides, cAMP levels were measured using a I^125-labeled radioimmunoassay kit.
(§1) Peptides were tested as described in Example 4 above on cultured human melanocytes for their capacity to activate MC1R, as measured by stimulating cAMP formation, and for their capacity for stimulating tyrosinase activity, the rate-limiting enzyme for melanin synthesis. The tested peptides were synthesized according to the formula: Ar(CH2)mX^1—X^2—CO—X^3—X^4—X^5-(Trp)n-NX^6R wherein X^1 and X^2 are absent, X^3 is His, X^5 is Arg, and X^6 is H. X^4 amino acids were in the D-stereoisomer form, unless otherwise noted.

tyrosinase = test: Stimulation of tyrosinase activity in cultured human melanocytes; settings: for TA compared to 10 nM αMSH: tyrosinase activity, cultured human melanocytes
Experimental: Peptides were tested on cultured human melanocytes for their capacity for stimulating tyrosinase activity, the rate-limiting enzyme for melanin synthesis. Melanocytes were treated every other day, for a total of 6 days, with increasing concentrations of peptides. Medium containing H^3-tyrosine, the substrate for tyrosinase, was added to melanocytes 24 hours before the end of the 6-day treatment. Tyrosinase activity was measured by determining the amount of ^3H2O generated as […] is catalyzed by tyrosinase for melanin synthesis.
as §1

MC1R [2] = biological target: T1, MC1R; test: cAMP stimulation in heterologous cells expressing hMC1R; parameters: expressed in transfected cells; settings: for HMC1R % MAX. ACTIVITY: cAMP, heterologous cells
Experimental: (§2) Receptor selectivity of peptide agonists for hMC1R was determined by stimulation of cAMP in heterologous cells expressing different human melanocortin receptors (MC1R, MC3R, MC4R, and MC5R).

hMC3R = biological target: T2, hMC3R (Homo sapiens, UniProt P41968); test: cAMP stimulation in heterologous cells expressing hMC3R
T2 construct: expressed in transfected cells
Experimental: as §2

[3] = test system: UV-irradiated human melanocytes; test: Repair of UV-induced cyclobutane pyrimidine dimers (CPD); settings: for CPD removal compared with 10 nM α-MSH: peptide at 1 nM, 48 hours post UV
Experimental: To investigate the effects of peptides on the repair of UV-induced DNA damage, levels of cyclobutane pyrimidine dimers (CPD), the major form of DNA photoproducts, were measured in UV-irradiated human melanocytes with or without peptide treatment. Melanocytes were pretreated with the peptides for 4 days prior to, and for 48 hours post UV exposure, harvested, immunostained by a specific antibody for CPD, and analyzed by flow cytometry.

hMC4R = biological target: T3, hMC4R (Homo sapiens, UniProt P32245); test: cAMP stimulation in heterologous cells expressing hMC4R
T3 construct: expressed in transfected cells
Experimental: as §2

hMC5R = biological target: T4, hMC5R (Homo sapiens, UniProt P33032); test: cAMP stimulation in heterologous cells expressing hMC5R
T4 construct: expressed in transfected cells
Experimental: as §2

[4] = test system: UV-irradiated human melanocytes; test: Repair of UV-induced 8-oxodG
Experimental: To investigate the effects of peptides on repair of UV-induced DNA damage, levels of 8-oxodG, a major form of oxidative DNA damage, were measured in UV-irradiated human melanocytes with or without peptide treatment. […] Fluorescence intensity, which correlates with the amount of DNA damage, was quantified using ImagJ software.

[5] = human melanocytes, 6 days treatment
[6] = human melanocytes, 45 minutes of treatment

T4 sequence (P33032 whole entry): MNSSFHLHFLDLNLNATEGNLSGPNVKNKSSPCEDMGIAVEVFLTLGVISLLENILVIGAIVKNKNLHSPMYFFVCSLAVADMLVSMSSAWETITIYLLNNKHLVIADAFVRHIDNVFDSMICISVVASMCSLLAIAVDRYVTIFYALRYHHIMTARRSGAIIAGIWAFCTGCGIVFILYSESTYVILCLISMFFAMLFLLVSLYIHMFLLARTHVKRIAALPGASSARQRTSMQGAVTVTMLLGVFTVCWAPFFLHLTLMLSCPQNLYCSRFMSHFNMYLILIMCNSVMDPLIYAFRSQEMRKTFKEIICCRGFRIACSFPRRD
T1 sequence (Q01726 whole entry): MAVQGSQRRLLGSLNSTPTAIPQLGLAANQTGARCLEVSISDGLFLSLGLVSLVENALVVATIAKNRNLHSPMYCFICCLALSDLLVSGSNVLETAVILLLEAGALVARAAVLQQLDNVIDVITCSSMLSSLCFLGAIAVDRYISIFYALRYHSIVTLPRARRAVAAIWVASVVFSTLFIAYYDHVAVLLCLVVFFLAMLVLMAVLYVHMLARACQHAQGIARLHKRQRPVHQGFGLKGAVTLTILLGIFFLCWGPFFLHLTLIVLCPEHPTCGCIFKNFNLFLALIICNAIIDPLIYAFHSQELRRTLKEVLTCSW
T2 sequence (P41968 whole entry): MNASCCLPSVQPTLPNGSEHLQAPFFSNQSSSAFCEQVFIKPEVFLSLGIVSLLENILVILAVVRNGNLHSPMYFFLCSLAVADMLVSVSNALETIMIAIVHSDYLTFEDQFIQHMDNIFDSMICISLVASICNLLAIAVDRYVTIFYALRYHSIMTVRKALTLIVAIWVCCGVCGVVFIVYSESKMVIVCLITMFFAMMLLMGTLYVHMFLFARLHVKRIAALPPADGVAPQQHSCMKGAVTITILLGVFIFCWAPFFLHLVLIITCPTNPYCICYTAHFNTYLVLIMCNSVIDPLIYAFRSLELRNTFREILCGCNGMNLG
T3 sequence (P32245 whole entry): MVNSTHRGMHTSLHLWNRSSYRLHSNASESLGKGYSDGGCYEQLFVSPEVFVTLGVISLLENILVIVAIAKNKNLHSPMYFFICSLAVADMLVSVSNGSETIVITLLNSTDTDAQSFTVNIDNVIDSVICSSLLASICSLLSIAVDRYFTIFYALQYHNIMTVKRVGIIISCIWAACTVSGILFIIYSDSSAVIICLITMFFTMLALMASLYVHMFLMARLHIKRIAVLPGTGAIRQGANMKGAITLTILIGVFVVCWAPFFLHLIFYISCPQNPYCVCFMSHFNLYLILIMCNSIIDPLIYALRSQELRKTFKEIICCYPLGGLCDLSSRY

Compound: 4-BrC6H4CH2CO-His-(D-4-FPhe)-Arg-Trp-NH2 [208P]
- cAMP compared to 10 nM αMSH (MC1R [1]): >

Compound: 4-FC6H4CH2CO-His-(D-1-Nal)-Arg-NHEt [495P]
- cAMP compared to 10 nM αMSH (MC1R [1]): NR (NR = No Response/inactive at 10 nM)

Compound: 4-FC6H4CH2CO-His-(D-2-Nal)-Arg-NHEt [496P]
- cAMP compared to 10 nM αMSH (MC1R [1]): NR (NR = No Response/inactive at 10 nM)

Compound: 4-FC6H4CH2CO-His-(D-4-Bip)-Arg-NHEt [497P]
- cAMP compared to 10 nM αMSH (MC1R [1]): NR (NR = No Response/inactive at 10 nM)

Compound: 4-FC6H4CH2CO-His-(D-4-FPhe)-Arg-Trp-NH2 [205P]
- TA compared to 10 nM αMSH (tyrosinase): ≥
- cAMP compared to 10 nM αMSH (MC1R [1]): ≤

Compound: 4-FC6H4CH2CO-His-(D-4-tBuPhe)-Arg-NHEt [498P]
- cAMP compared to 10 nM αMSH (MC1R [1]): NR** (NR = No Response/inactive at 10 nM)

Compound: 4-IC6H4CH2CO-His-(D-Phe)-Arg-Trp-NH2 [488P]
- cAMP compared to 10 nM αMSH (MC1R [1]): >>

Compound: N=C(N)NCCC[C@H](NC(=O)[C@@H](Cc1ccccc1)NC(=O)[C@H](Cc1c[nH]cn1)NC(=O)CCCc1ccccc1)C(=O)N[C@@H](Cc1c[nH]c2ccccc12)C(N)=O [LK-184, Ph(CH2)3CO-His-(D-Phe)-Arg-Trp-NH2]
- HMC1R % MAX. ACTIVITY (MC1R [2]): 128%
- effect on tyrosinase activity, comparison (tyrosinase; [5]): comparable effects in tyrosinase activity
- HMC3R % MAX. ACTIVITY (hMC3R; cAMP, heterologous cells): 85%
- CPD removal compared with 10 nM α-MSH [3]: same effect at 1 nM on CPD removal as 10 nM a-MSH; also recorded: same effect at 1 nM on CPD removal as 10 nM α-MSH
- HMC4R % MAX. ACTIVITY (hMC4R; cAMP, heterologous cells): 102%
- concentration giving maximal levels of cAMP (MC1R [1]; [6]): 10 nM
- HMC5R % MAX. ACTIVITY (hMC5R; cAMP, heterologous cells): 39%

Compound: N=C(N)NCCC[C@H](NC(=O)[C@@H](Cc1cccc2ccccc12)NC(=O)[C@H](Cc1c[nH]cn1)NC(=O)CCCc1ccccc1)C(=O)N[C@@H](Cc1c[nH]c2ccccc12)C(N)=O [LK-467, Ph(CH2)3CO-His-(D-1-Nal)-Arg-Trp-NH2]
- HMC1R % MAX. ACTIVITY (MC1R [2]): 111%
- effect on tyrosinase activity, comparison (tyrosinase; [5]): comparable effects in tyrosinase activity
- potency relative to a-MSH in activating MC1R and stimulating melanogenesis (tyrosinase; [5]): at least 100 times
- HMC3R % MAX. ACTIVITY (hMC3R; cAMP, heterologous cells): 7%
- reduction of 8-oxodG levels, comparison with LK-184 ([4]; 24 hours after UV exposure): as effective as LK-184
- reduction of CPD levels, comparison with LK-184 ([3]; 48 hours after UV exposure): as effective as LK-184
- CPD removal compared with 10 nM α-MSH [3]: same effect at 1 nM on CPD removal as 10 nM a-MSH; also recorded: same effect at 1 nM on CPD removal as 10 nM α-MSH
- potency at hMC4R compared with LK-184 (hMC4R): about ten times less potent
- HMC4R % MAX. ACTIVITY (hMC4R; cAMP, heterologous cells): 39%
- cAMP compared to 10 nM αMSH (MC1R [1]): >
- potency in stimulating cAMP formation, comparison (MC1R [1]; [6]): more potent than LK-184
- HMC5R % MAX. ACTIVITY (hMC5R; cAMP, heterologous cells): 34%

Compound: N=C(N)NCCC[C@H](NC(=O)[C@@H](Cc1ccc(-c2ccccc2)cc1)NC(=O)[C@H](Cc1c[nH]cn1)NC(=O)CCCc1ccccc1)C(N)=O [LK-511, Ph(CH2)3CO-His-(D-4-Bip)-Arg-NH2]
- potency in activation of MC1R compared with MT-II (MC1R [2]): about as potent as MT-II
- HMC1R % MAX. ACTIVITY (MC1R [2]): 88%
- concentration at which significant stimulation of tyrosinase activity begins (tyrosinase; [5]): 1 nM
- TA compared to 10 nM αMSH (tyrosinase): <
- binding of MC3R (hMC3R): do not bind
- HMC3R EC50 (hMC3R; cAMP, heterologous cells): INACTIVE
- binding of MC4R (hMC4R): do not bind
- HMC4R EC50 (hMC4R; cAMP, heterologous cells): INACTIVE
- cAMP compared to 10 nM αMSH (MC1R [1]): <
- potency in stimulating cAMP formation, comparison (MC1R [1]; [6]): about ten times less potent than a-MSH; also recorded: about ten times less potent than α-MSH
- binding of MC5R (hMC5R): do not bind
- HMC5R EC50 (hMC5R; cAMP, heterologous cells): INACTIVE

Compound: CC(C)(C)c1ccc(C[C@@H](NC(=O)[C@H](Cc2c[nH]cn2)NC(=O)CCCc2ccccc2)C(=O)N[C@@H](CCCNC(=N)N)C(N)=O)cc1 [LK-514, Ph(CH2)3CO-His-(D-4-tBuPhe)-Arg-NH2]
- potency in activation of MC1R compared with MT-II (MC1R [2]): about as potent as MT-II
- HMC1R % MAX. ACTIVITY (MC1R [2]): 94%
- concentration at which significant stimulation of tyrosinase activity begins (tyrosinase; [5]): 1 nM
- effect on tyrosinase activity, comparison (tyrosinase; [5]): the most effective
- TA compared to 10 nM αMSH (tyrosinase): <
- binding of MC3R (hMC3R): do not bind
- reduction of 8-oxodG levels compared with 1 nM α-MSH ([4]; peptide at 100 nM, 24 hours post UV): greater effect than 1 nM α-MSH
- binding of MC4R (hMC4R): do not bind
- cAMP compared to 10 nM αMSH (MC1R [1]): <
- potency in stimulating cAMP formation, comparison (MC1R [1]; [6]): about ten times less potent than a-MSH; also recorded: more potent than LK-511 or 513; also recorded: about ten times less potent than α-MSH; also recorded: more potent than LK-511 or LK-513
- binding of MC5R (hMC5R): do not bind

Compound: Ph(CH2)3CO-His-(D-1-Nal)-Arg-NH2 [510P]
- TA compared to 10 nM αMSH (tyrosinase): NR (NR = No Response/inactive at 10 nM)

Compound: Ph(CH2)3CO-His-(D-1-Nal)-Arg-NHEt [491P]
- cAMP compared to 10 nM αMSH (MC1R [1]): NR (NR = No Response/inactive at 10 nM)

Compound: Ph(CH2)3CO-His-(D-1-Nal)-Arg-NHMe [512P]
- TA compared to 10 nM αMSH (tyrosinase): NR (NR = No Response/inactive at 10 nM)

Compound: Ph(CH2)3CO-His-(D-2-Nal)-Arg-NH2 [515P]
- TA compared to 10 nM αMSH (tyrosinase): <<

Compound: Ph(CH2)3CO-His-(D-2-Nal)-Arg-NHEt [492P]
- cAMP compared to 10 nM αMSH (MC1R [1]): NR (NR = No Response/inactive at 10 nM)

Compound: Ph(CH2)3CO-His-(D-2-Nal)-Arg-NHMe [517P]
- TA compared to 10 nM αMSH (tyrosinase): <<<

Compound: Ph(CH2)3CO-His-(D-2-Nal)-Arg-Trp-NH2 [468P]
- cAMP compared to 10 nM αMSH (MC1R [1]): ≤

Compound: Ph(CH2)3CO-His-(D-2-Thi)-Arg-Trp-NH2 [476P]
- cAMP compared to 10 nM αMSH (MC1R [1]): >

Compound: Ph(CH2)3CO-His-(D-3-NO2Phe)-Arg-Trp-NH2 [472P]
- cAMP compared to 10 nM αMSH (MC1R [1]): <

Compound: Ph(CH2)3CO-His-(D-4-Bip)-Arg-NHEt [493P]
- cAMP compared to 10 nM αMSH (MC1R [1]): <<

Compound: Ph(CH2)3CO-His-(D-4-BrPhe)-Arg-Trp-NH2 [474P]
- cAMP compared to 10 nM αMSH (MC1R [1]): =; <; >

Compound: Ph(CH2)3CO-His-(D-4-ClPhe)-Arg-Trp-NH2 [473P]
- cAMP compared to 10 nM αMSH (MC1R [1]): =; >

Compound: Ph(CH2)3CO-His-(D-4-FPhe)-Arg-Trp-NH2 [470P]
- cAMP compared to 10 nM αMSH (MC1R [1]): >

Compound: Ph(CH2)3CO-His-(D-4-IPhe)-Arg-Trp-NH2 [475P]
- cAMP compared to 10 nM αMSH (MC1R [1]): <; >

Compound: Ph(CH2)3CO-His-(D-4-NO2Phe)-Arg-Trp-NH2 [471P]
- cAMP compared to 10 nM αMSH (MC1R [1]): =

Compound: Ph(CH2)3CO-His-(D-4-tBuPhe)-Arg-NHEt [494P]
- cAMP compared to 10 nM αMSH (MC1R [1]): <<

Compound: Ph(CH2)3CO-His-(D-4-tBuPhe)-Arg-NHMe [516P]
- TA compared to 10 nM αMSH (tyrosinase): <<

Compound: Ph(CH2)3CO-His-(D-Phe)-Arg-Trp-NHEt [LK-487]
- effect on tyrosinase activity, comparison (tyrosinase; [5]): equipotent to LK-467
- cAMP compared to 10 nM αMSH (MC1R [1]): >*
- potency in stimulating cAMP formation, comparison (MC1R [1]; [6]): equipotent to LK-467

Compound: melanotan II [MT-II, reference compound]
- HMC1R % MAX. ACTIVITY (MC1R [2]): 103%
- HMC5R % MAX. ACTIVITY (hMC5R; cAMP, heterologous cells): 100%
